test system: Dirofilaria immitis; assay: Dirofilaria immitis microfilariae motility assay or L4 stage assay (the source does not say which gave the EC50 values); type: cell-based; settings: 72 h, read-out: EC50 values

Compound | EC50
O=C(Nc1nc(-c2cccc(-c3cccnc3)n2)ns1)c1ccc(C(F)(F)F)cc1 [Compound 116, N-[3-[6-(3-pyridyl)-2-pyridyl]-1,2,4-thiadiazol-5-yl]-4-(trifluoromethyl)benzamide] | < 5 µM
O=C(Nc1nc(-c2ccccn2)ns1)c1ccc(Cc2ccccc2)cc1 [Compound 89, 4-benzyl-N-[3-(2-pyridyl)-1,2,4-thiadiazol-5-yl]benzamide] | < 5 µM
O=C(Nc1nc(-c2ccccn2)ns1)c1cccc(Nc2ccccc2)c1 [Compound 119, 3-anilino-N-[3-(2-pyridyl)-1,2,4-thiadiazol-5-yl]benzamide] | < 5 µM
O=C(Nc1nc(-c2ccccn2)ns1)c1ccc(I)cc1 [Compound 67, 4-iodo-N-[3-(2-pyridyl)-1,2,4-thiadiazol-5-yl]benzamide] | < 5 µM
O=C(Nc1nc(-c2ccccn2)ns1)c1ccc(NCc2ccccc2)cc1 [Compound 118, 4-(benzylamino)-N-[3-(2-pyridyl)-1,2,4-thiadiazol-5-yl]benzamide] | < 5 µM
O=C(Nc1nc(-c2ccccn2)ns1)c1ccc(NC2CCNCC2)cc1 [Compound 79, 4-(4-piperidylamino)-N-[3-(2-pyridyl)-1,2,4-thiadiazol-5-yl]benzamide] | < 5 µM
O=C(Nc1nc(-c2ccccn2)ns1)c1ccc(C(=O)N2CCCCC2)cc1 [Compound 72, 4-(piperidine-1-carbonyl)-N-[3-(2-pyridyl)-1,2,4-thiadiazol-5-yl]benzamide] | < 5 µM
CC(C)(C)COc1ccnc(-c2nsc(NC(=O)c3ccc(C(F)(F)F)cc3)n2)c1 [Compound 143, N-[3-[4-(2,2-dimethylpropoxy)-2-pyridyl]-1,2,4-thiadiazol-5-yl]-4-(trifluoromethyl)benzamide] | < 5 µM
CC(C)(C)OC(=O)N1CCN(C(=O)c2ccc(C(=O)Nc3nc(-c4ccccn4)ns3)cc2)CC1 [Compound 70, tert-butyl 4-[4-[[3-(2-pyridyl)-1,2,4-thiadiazol-5-yl]carbamoyl]benzoyl]piperazine-1-carboxylate] | < 5 µM
